Results from patent publication US7442501B2, “SQV nucleic acids and polypeptides” (Massachusetts Institute of Technology, priority 2002, dated 2008).

Experiments:
[1] = target: T1, SQV-4 (Caenorhabditis elegans, UniProt Q19905, T2A); format: biochemical, C. elegans; conditions: UDP-glucose replaced; 100 μM NAD+ and 250 μM nucleotide sugar
T1 construct: were used for PCR-amplification of the sqv-4 ORF, and the resulting product was digested with NcoI and XhoI and cloned into pET21d; made in house; host or cells: E. coli BL21 pLysS, pET21d; soluble fraction used without purification
T1 sequence (Q19905 whole entry T2A): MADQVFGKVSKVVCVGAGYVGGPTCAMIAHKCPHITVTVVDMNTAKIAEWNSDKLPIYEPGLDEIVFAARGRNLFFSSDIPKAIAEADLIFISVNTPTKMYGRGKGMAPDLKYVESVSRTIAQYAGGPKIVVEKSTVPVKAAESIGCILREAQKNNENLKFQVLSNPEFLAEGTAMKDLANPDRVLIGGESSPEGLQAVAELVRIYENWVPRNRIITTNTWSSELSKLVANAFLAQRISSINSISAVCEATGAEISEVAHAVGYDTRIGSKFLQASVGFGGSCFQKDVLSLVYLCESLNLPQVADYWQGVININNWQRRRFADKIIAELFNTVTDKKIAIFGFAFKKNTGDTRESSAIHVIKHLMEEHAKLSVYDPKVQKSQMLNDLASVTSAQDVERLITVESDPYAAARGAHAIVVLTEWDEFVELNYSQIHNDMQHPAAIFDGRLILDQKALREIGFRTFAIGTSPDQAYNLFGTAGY
Excerpt: The sqv-4 coding sequences corresponding to the wild-type, n2827, and n2840 alleles were cloned into the pET21d E. coli expression vector and transformed into BL21 pLysS. The oligonucleotides 5′-[…]-3′ (SEQ ID NO:53) and 5′-[…]-3′ (SEQ ID NO:54) were used to generate R353H n2827 and T4101 n2840 mutations, respectively, by site-directed mutagenesis. The oligonucleotides 5′-[…]-3′ (SEQ ID NO:55) and 5′-[…]-3′ (SEQ ID NO:56) were used for PCR-amplification of the sqv-4 ORF, and the resulting product was digested with NcoI and XhoI and cloned into pET21d. All three proteins have a threonine to alanine mutation in the second amino acid because of the addition of an NcoI site at the 5′ end. SQV-4 expression was induced by incubation with 1 mM IPTG for three to four hours at 37° C. E. coli were pelleted and resuspended in 50 mM Tris-HCl pH 7.5, 1 mM DTT, 1 mM EDTA, 1 mM PMSF, 2 μg/ml pepstatin A, and aprotinin and lysed using a French pressure cell. The soluble fraction was separated from the insoluble inclusion bodies by centrifugation at 12,000 g for 20 minutes.
All assays were performed at room temperature (20 to 22° C.) in 50 mM Tris-HCl, 2 mM dithiothrietol (DTT), pH 8.7. The initial velocity of the reaction was determined from time points during the first 60 seconds after addition of the SQV-4 extract.

[2] = test system: MBP-SQV-1; test: UDP-glucuronic acid decarboxylase assay (HPLC-MS); format: biochemical, C. elegans; conditions: in the presence of NAD+ cofactor
Procedure: This enzymatic reaction mixture was analyzed using an HPLC coupled to a mass spectrometer. Ion phase reverse polarity HPLC separated the nucleotide sugars and […] into three peaks of elution as detected by UV (FIG. 3A). These peaks were determined by mass spectrometry to be the substrate UDP-glucuronic acid, the product UDP-xylose, and the cofactor NAD^+. Negative polarity mass spectra identified the masses of the most abundant compounds in the reaction sample as 579 and 535 (FIG. 3B). These masses corresponded to the molecular masses of UDP-glucuronic acid (580) and UDP-xylose (536). The slight difference in molecular mass (579 versus 580 and 535 versus 536) was due to the negative ionization by the mass spectrometer, which removed one hydrogen atom from each compound. The presence of isotopic masses of 536 and 537 corresponded to subpopulations of UDP-xylose containing heavy isotopes such as ^13C.
Standard molecular biology techniques were used (Sambrook et al., Molecular Cloning: A Laboratory Manual. Plainview, N.Y., Cold Spring Harbor Laboratory Pess, 1989) to obtain a construct that encoded a SQV-1-maltose-binding protein (MBP) fusion protein. The sqv-1 coding sequence was cloned into the MBP encoding vector, pMAL-c2. The oligonucleotides 5′-[…]-3′ (SEQ ID NO:32) and 5′-[…]-3′ (SEQ ID NO:33) were used to PCR-amplify the sqv-1 ORF. […]

## O=C(O)[C@H]1O[C@H](OP(=O)(O)OP(=O)(O)OC[C@H]2O[C@@H](n3ccc(=O)[nH]c3=O)[C@H](O)[C@@H]2O)[C@H](O)[C@@H](O)[C@@H]1O [UDP-glucuronic acid]
[1]
  NAD+ reduction: undetectable
[2]
  conversion by MBP-SQV-1 fusion protein: generated UDP-xylose from UDP-glucuronic acid
